Patent US9359423B2, “Protein involved in detection of cancer metastasis and a treatment thereof” (National University of Singapore, priority 2011, dated 2016)

Assays:
[1] = tested on: E-cadherin, b-catenin and paxillin; assay: Expression of cell-adhesion proteins after activation of TRPV4 by PDD; format: cell-based; settings: PDD treatment, FIG. 4B
Source text: (§1) FIG. 4A—Silencing of TRPV4 expression was associated with a failure to produce a rise of intracellular Ca2+ upon stimulation with PDD. […] 4C—Activation of TRPV4 by PDD treatment stimulated AKT, FAK and MAPK pathway.
FIG. 5—AKT mediates TRPV4-induced downregulation of E-cadherin and b-catenin. Down regulation of these cytoskeletal proteins correlate with an increase in cancer cell plasticity required for intravasation and extravasation processes during metastasis. Cells were either treated or not treated with PDD (activator of TRPV4) in the presence or absence of AKT inhibitor). Top 1 and 2 panels, inhibition of AKT is confirmed by probing the phosphorylation status of S6, a downstream target of AKT. Bottom 3-5 panels, PDD-induced downregulation of E-cadherin and b-catenin.

[2] = tested on: AKT, FAK and MAPK pathway; assay: Pathway activation after activation of TRPV4 by PDD; format: cell-based; settings: PDD treatment, FIG. 4C
Source text: as §1

[3] = molecular target: T1, TRPV4 (Homo sapiens, UniProt Q9HBA0); settings: cited from earlier work
T1 sequence (Q9HBA0 whole entry, species assumed): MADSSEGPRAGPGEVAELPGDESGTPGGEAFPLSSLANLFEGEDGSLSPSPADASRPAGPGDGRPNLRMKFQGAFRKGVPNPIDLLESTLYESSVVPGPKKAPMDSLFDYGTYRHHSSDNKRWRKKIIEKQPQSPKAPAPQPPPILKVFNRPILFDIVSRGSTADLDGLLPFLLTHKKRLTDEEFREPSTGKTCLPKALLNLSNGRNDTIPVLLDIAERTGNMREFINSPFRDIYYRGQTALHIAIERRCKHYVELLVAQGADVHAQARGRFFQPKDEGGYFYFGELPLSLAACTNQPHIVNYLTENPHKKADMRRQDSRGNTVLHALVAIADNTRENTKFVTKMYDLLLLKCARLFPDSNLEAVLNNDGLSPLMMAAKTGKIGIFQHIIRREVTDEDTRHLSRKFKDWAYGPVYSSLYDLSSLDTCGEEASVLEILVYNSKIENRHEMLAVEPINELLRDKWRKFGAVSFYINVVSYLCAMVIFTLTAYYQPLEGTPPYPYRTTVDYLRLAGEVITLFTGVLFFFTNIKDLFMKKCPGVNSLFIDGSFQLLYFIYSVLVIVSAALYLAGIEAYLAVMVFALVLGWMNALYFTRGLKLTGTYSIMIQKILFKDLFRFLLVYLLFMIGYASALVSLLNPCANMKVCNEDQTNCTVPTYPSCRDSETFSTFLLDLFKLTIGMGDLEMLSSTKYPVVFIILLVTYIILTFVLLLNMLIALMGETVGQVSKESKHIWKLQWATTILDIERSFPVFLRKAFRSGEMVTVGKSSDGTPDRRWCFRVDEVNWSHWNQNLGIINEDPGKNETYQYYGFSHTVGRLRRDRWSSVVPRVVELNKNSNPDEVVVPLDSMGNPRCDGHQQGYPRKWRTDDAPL

[4] = molecular target: T2, endogenous TRPV4 (Mus musculus, UniProt Q9EPK8); settings: read-out: IC50, endogenous TRPV4-mediated response to 4α-PDH; 4α-PDH stimulation; cited from earlier work
T2 construct: endogenous in cells
T2 sequence (Q9EPK8 whole entry): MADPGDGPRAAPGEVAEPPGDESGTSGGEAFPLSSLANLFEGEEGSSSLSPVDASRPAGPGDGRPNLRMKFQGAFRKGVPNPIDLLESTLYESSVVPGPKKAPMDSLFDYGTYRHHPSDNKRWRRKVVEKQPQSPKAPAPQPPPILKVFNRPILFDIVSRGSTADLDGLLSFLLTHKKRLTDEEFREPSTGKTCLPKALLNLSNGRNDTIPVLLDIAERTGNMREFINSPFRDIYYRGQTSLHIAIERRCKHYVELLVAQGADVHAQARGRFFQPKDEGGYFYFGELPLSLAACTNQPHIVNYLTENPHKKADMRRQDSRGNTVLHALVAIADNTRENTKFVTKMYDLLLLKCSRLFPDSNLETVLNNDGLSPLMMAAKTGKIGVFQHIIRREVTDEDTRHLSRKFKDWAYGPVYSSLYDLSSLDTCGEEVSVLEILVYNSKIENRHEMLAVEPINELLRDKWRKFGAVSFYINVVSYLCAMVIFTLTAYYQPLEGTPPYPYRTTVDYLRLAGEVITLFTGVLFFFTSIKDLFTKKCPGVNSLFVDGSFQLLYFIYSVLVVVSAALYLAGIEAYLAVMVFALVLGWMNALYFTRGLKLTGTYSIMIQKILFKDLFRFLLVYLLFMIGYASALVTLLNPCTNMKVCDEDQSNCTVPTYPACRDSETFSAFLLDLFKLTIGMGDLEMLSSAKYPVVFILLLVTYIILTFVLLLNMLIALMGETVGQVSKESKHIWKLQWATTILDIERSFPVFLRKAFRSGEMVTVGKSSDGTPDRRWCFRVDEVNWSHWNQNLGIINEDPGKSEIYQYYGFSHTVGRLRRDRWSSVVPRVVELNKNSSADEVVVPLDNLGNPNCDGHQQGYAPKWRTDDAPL

[5] = cited from earlier work
[6] = molecular target: T1, TRPV4; settings: 4α-phorbol 12,13-didecanoate stimulation; cited from earlier work

CCCCCCCCCC(=O)O[C@@H]1[C@@H](C)[C@@]2(O)[C@@H](C=C(CO)C[C@@]3(O)C(=O)C(C)=C[C@@H]23)[C@@H]2C(C)(C)[C@]12OC(=O)CCCCCCCCC [PDD, 4α-phorbol 12,13-didecanoate]
Expression of cell-adhesion proteins like E-cadherin, b-catenin and paxillin [1]: reduced
AKT, FAK and MAPK pathway activation [2]: stimulated

N.N.N.N.N.N.N.N.N.N.N.N.N.N.[Cl-].[Cl-].[Cl-].[Cl-].[Cl-].[Cl-].[O-2].[O-2].[Ru+3].[Ru+3].[Ru+4] [Ruthenium red]
Inhibition of TRPV4 [3]: known inhibitor of TRPV4

Cc1c(C(=O)Nc2cccc(C(F)(F)F)c2)cc(-c2ccccc2)n1CCCN1CCOCC1 [formula 1, 2-Methyl-1-[3-(4-morpholinyl)propyl]-5-phenyl-N-[3-(trifluoromethyl)phenyl]-1H-pyrrole-3-carboxamide]
IC50 [4]: 22 nM
Solubility in DMSO ([5]; DMSO): 100 mM
Solubility in ethanol ([5]; ethanol): 25 mM

Cc1c(C(=O)Nc2cccc(C(F)(F)F)c2)cc(-c2ccccc2)n1CCCN1CCOCC1 [formula 3]
Effect on 4α-PDD-induced Ca2+ responses [6]: reduces
